Measurements from patent publication US6737383B1, “Herbicidal oxadiazolidines” (priority 1999, dated 2004).

Tests used:
bedstraw = assay: Test B pre/postemergence bedstraw; type: in vivo, Galium aparine
How it was run: (§1)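 Herbicidal effect was estimated by eye on a ten-point control scale after plants spent twelve to sixteen days in a greenhouse following soil or foliar treatment. Foliar sprays targeted plants at one to four leaves; all doses were formulated in a non-phytotoxic solvent with surfactant.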

blackgrass = assay: Test B pre/postemergence blackgrass; type: in vivo, Alopecurus myosuroides
How it was run: as §1

surinam grass = assay: Test B pre/postemergence surinam grass; type: in vivo, Brachiaria decumbens
How it was run: as §1

cocklebur = assay: Test B pre/postemergence cocklebur; type: in vivo, Xanthium strumarium
How it was run: as §1

corn = assay: Test B pre/postemergence corn; type: in vivo, Zea mays
How it was run: as §1

crabgrass = assay: Test B pre/postemergence crabgrass; type: in vivo, Digitaria sanguinalis
How it was run: as §1

giant foxtail = assay: Test B pre/postemergence giant foxtail; type: in vivo, Setaria faberii
How it was run: as §1

morningglory = assay: Test B pre/postemergence morningglory; type: in vivo, Ipomoea hederacea
How it was run: as §1

pigweed = assay: Test B pre/postemergence pigweed; type: in vivo, Amaranthus retroflexus
How it was run: as §1

rape = assay: Test B pre/postemergence rape; type: in vivo, Brassica napus
How it was run: as §1

soybean = assay: Test B pre/postemergence soybean; type: in vivo, Glycine max
How it was run: as §1

sugar beet = assay: Test B pre/postemergence sugar beet; type: in vivo, Beta vulgaris
How it was run: as §1

velvetleaf = assay: Test B pre/postemergence velvetleaf; type: in vivo, Abutilon theophrasti
How it was run: as §1

wheat = assay: Test B pre/postemergence wheat; type: in vivo, Triticum aestivum
How it was run: as §1

wild oat = assay: Test B pre/postemergence wild oat; type: in vivo, Avena fatua
How it was run: as §1

purple nutsedge = assay: Test B pre/postemergence purple nutsedge; type: in vivo, Cyperus rotundus
How it was run: as §1

[1] = Postemergence, Rate 62 g/ha, scale 0 to 10, 0 is no effect, 10 is complete control
[2] = Postemergence, Rate 125 g/ha, scale of 0 to 10 where 0 is no effect and 10 is complete control
[3] = Postemergence, Rate 500 g/ha, scale 0 (no effect) to 10 (complete control)
[4] = Preemergence, Rate 250 g/ha, scale 0 (no effect) to 10 (complete control)
[5] = Rate 62 g/ha, Preemergence, scale 0 to 10
[6] = Rate 125 g/ha, Preemergence, scale 0 to 10 (0 no effect, 10 complete control)
[7] = Rate 250 g/ha, Postemergence, scale 0 to 10, 0 is no effect, 10 is complete control
[8] = Rate 500 g/ha, Preemergence, scale 0 to 10 (0 no effect, 10 complete control)

## CCOC(CC)n1c(=O)on(C(=O)N(c2ccc(Cl)cc2)C(C)C)c1=O (stereo not drawn) [Compound 772]
bedstraw; [1]
  Plant response rating, Bedstraw: 0
bedstraw; [2]
  Bedstraw plant response rating: 0
bedstraw; [3]
  Bedstraw plant response rating: 0
bedstraw; [4]
  Bedstraw plant response rating: 0
bedstraw; [5]
  Bedstraw plant response rating: 0
bedstraw; [6]
  Bedstraw plant response rating: 0
bedstraw; [7]
  Bedstraw plant response rating: 0
bedstraw; [8]
  Bedstraw plant response rating: 0
blackgrass; [1]
  Plant response rating, Blackgrass: 0
blackgrass; [2]
  Blackgrass plant response rating: 0
blackgrass; [3]
  Blackgrass plant response rating: 0
blackgrass; [4]
  Blackgrass plant response rating: 0
blackgrass; [5]
  Blackgrass plant response rating: 0
blackgrass; [6]
  Blackgrass plant response rating: 0
blackgrass; [7]
  Blackgrass plant response rating: 0
blackgrass; [8]
  Blackgrass plant response rating: 0
Surinam grass; [1]
  Plant response rating, B. signalgrass: 0
Surinam grass; [2]
  B. signalgrass plant response rating: 0
Surinam grass; [4]
  B. signalgrass plant response rating: 0
Surinam grass; Rate 62 g/ha, Preemergence, scale 0 (no effect) to 10 (complete control)
  B. signalgrass plant response rating: 0
Surinam grass; [6]
  B. signalgrass plant response rating: 0
Surinam grass; [7]
  B. signalgrass plant response rating: 0
Surinam grass; Rate 500 g/ha, Postemergence, scale 0 to 10, 0 is no effect, 10 is complete control
  B. signalgrass plant response rating: 0
Surinam grass; [8]
  B. signalgrass plant response rating: 0
cocklebur; [1]
  Plant response rating, Cocklebur: 0
cocklebur; [2]
  Cocklebur plant response rating: 0
cocklebur; [3]
  Cocklebur plant response rating: 0
cocklebur; [4]
  Cocklebur plant response rating: 0
cocklebur; [5]
  Cocklebur plant response rating: 0
cocklebur; [6]
  Cocklebur plant response rating: 0
cocklebur; [7]
  Cocklebur plant response rating: 0
cocklebur; [8]
  Cocklebur plant response rating: 0
corn; [1]
  Plant response rating, Corn: 0
corn; [2]
  Corn plant response rating: 0
corn; [3]
  Corn plant response rating: 0
corn; [4]
  Corn plant response rating: 0
corn; [5]
  Corn plant response rating: 0
corn; [6]
  Corn plant response rating: 0
corn; [7]
  Corn plant response rating: 0
corn; [8]
  Corn plant response rating: 0
crabgrass; [1]
  Plant response rating, Crabgrass: 0
crabgrass; [2]
  Crabgrass plant response rating: 0
crabgrass; [3]
  Crabgrass plant response rating: 0
crabgrass; [4]
  Crabgrass plant response rating: 0
crabgrass; [5]
  Crabgrass plant response rating: 0
crabgrass; [6]
  Crabgrass plant response rating: 0
crabgrass; [7]
  Crabgrass plant response rating: 0
crabgrass; [8]
  Crabgrass plant response rating: 0
Giant foxtail; [1]
  Plant response rating, Giant foxtail: 0
Giant foxtail; [2]
  Giant foxtail plant response rating: 0
Giant foxtail; [3]
  Giant foxtail plant response rating: 0
Giant foxtail; [4]
  Giant foxtail plant response rating: 0
Giant foxtail; [5]
  Giant foxtail plant response rating: 0
Giant foxtail; [6]
  Giant foxtail plant response rating: 0
Giant foxtail; [7]
  Giant foxtail plant response rating: 0
Giant foxtail; [8]
  Giant foxtail plant response rating: 0
morningglory; [1]
  Plant response rating, Morningglory: 0
morningglory; [2]
  Morningglory plant response rating: 0
morningglory; [3]
  Morningglory plant response rating: 2
morningglory; [5]
  Morningglory plant response rating: 0
morningglory; [6]
  Morningglory plant response rating: 0
morningglory; [7]
  Morningglory plant response rating: 0
morningglory; [8]
  Morningglory plant response rating: 0
pigweed; [1]
  Plant response rating, Redroot pigweed: 0
pigweed; [2]
  Redroot pigweed plant response rating: 0
pigweed; [3]
  Redroot pigweed plant response rating: 0
pigweed; [5]
  Redroot pigweed plant response rating: 0
pigweed; [6]
  Redroot pigweed plant response rating: 0
pigweed; [7]
  Redroot pigweed plant response rating: 0
pigweed; [8]
  Redroot pigweed plant response rating: 0
rape; [1]
  Plant response rating, Rape: 0
rape; [2]
  Rape plant response rating: 0
rape; [3]
  Rape plant response rating: 0
rape; [5]
  Rape plant response rating: 0
rape; [6]
  Rape plant response rating: 0
rape; [7]
  Rape plant response rating: 0
rape; [8]
  Rape plant response rating: 0
soybean; [1]
  Plant response rating, Soybean: 0
soybean; [3]
  Soybean plant response rating: 0
soybean; [5]
  Soybean plant response rating: 0
soybean; [6]
  Soybean plant response rating: 0
soybean; [7]
  Soybean plant response rating: 0
soybean; [8]
  Soybean plant response rating: 0
Sugar beet; [1]
  Plant response rating, Sugarbeets: 0
Sugar beet; [3]
  Sugarbeets plant response rating: 0
Sugar beet; [5]
  Sugarbeets plant response rating: 0
Sugar beet; [6]
  Sugarbeets plant response rating: 0
Sugar beet; [7]
  Sugarbeets plant response rating: 0
Sugar beet; [8]
  Sugarbeets plant response rating: 0
velvetleaf; [1]
  Plant response rating, Velvetleaf: 0
velvetleaf; [3]
  Velvetleaf plant response rating: 0
velvetleaf; [5]
  Velvetleaf plant response rating: 0
velvetleaf; [6]
  Velvetleaf plant response rating: 0
velvetleaf; [7]
  Velvetleaf plant response rating: 0
velvetleaf; [8]
  Velvetleaf plant response rating: 0
wheat; [1]
  Plant response rating, Wheat: 0
wheat; [3]
  Wheat plant response rating: 0
wheat; [5]
  Wheat plant response rating: 0
wheat; [6]
  Wheat plant response rating: 0
wheat; [7]
  Wheat plant response rating: 0
wheat; [8]
  Wheat plant response rating: 0
Wild oat; [1]
  Plant response rating, Wild oats: 0
Wild oat; [3]
  Wild oats plant response rating: 0
Wild oat; [5]
  Wild oats plant response rating: 0
Wild oat; [6]
  Wild oats plant response rating: 0
Wild oat; [7]
  Wild oats plant response rating: 0
Wild oat; [8]
  Wild oats plant response rating: 0
Purple nutsedge; [1]
  Plant response rating, Nutsedge: 0
Purple nutsedge; [2]
  Nutsedge plant response rating: 0
Purple nutsedge; [3]
  Nutsedge plant response rating: 0
Purple nutsedge; [5]
  Nutsedge plant response rating: 0
Purple nutsedge; [6]
  Nutsedge plant response rating: 0
Purple nutsedge; [7]
  Nutsedge plant response rating: 0
Purple nutsedge; [8]
  Nutsedge plant response rating: 0
